In data set [1] the test system is endogenous CGRP action (capsaicin-induced dermal vasodilation). Briefly: Capsaicin-induced dermal vasodilation (CIDV), laser Doppler imaging of the mouse ear. The class given is in vivo, C57BL/6J mice. As to conditions: for effect on CIDV response (antagonist screening): male and female C57BL/6J mice, single s.c. dose 10 min before anesthesia, αCGRP8-37 960 nmol/kg, olcegepant 1150 nmol/kg, K24C-palmitate 320 nmol/kg, capsaicin 60 μg/ear, flux AUC over 15 min vs saline, four to five mice per group; for effect on CIDV response at lower (mass-matched) dose: s.c., flux AUC over 15 min vs matched vehicle group, compared to V8C-palmitate and K24C-palmitate, 4-7 per group. Here is the method: (§1) Experimental design is outlined in Figure 1. Male and female C57BL/6J mice were recruited at 10–12 weeks of age at 20–30 g bodyweight. Animals were randomly allocated to each treatment group. Antagonists were diluted from respective stock solutions into 37°C pre-warmed sterile 0.9% saline containing 0.1% BSA and DMSO at a final amount of 3.2%. The vehicle was 0.9% saline supplemented with 0.1% BSA and 3.2% DMSO. Antagonist or vehicle was administered subcutaneously at a volume of 10 ml/kg. The anesthetic was: ketamine at 10 mg/ml and xylazine at 1 mg/ml, dissolved in sterile 0.9% saline. This was administered via the intraperitoneal route at 10 ml/kg and the anesthetized mouse placed onto a heating pad to maintain constant body temperature. The head was positioned for the dorsal region of both ears to be aligned to the LDI2-HIR Laser Doppler Imager (Moor Instruments) above it. The imager scanned 40 cm from the ear at a scan speed of 4 ms/pixel, with a scan area of approximately 11.0 cm × 4.1 cm and 256 × 45 pixels resolution. This provided a scan rate of approximately 1 scan/min for both ears. Both ears were simultaneously scanned for 3 min to generate the baseline blood flow prior to capsaicin-challenge (Figure 1). Guided by earlier research ([Grant et al., 2002]), capsaicin (Sigma-Aldrich, St. Louis, MO, United States) dissolved in absolute ethanol was applied topically to the ear (60 μg/ear; 10 μl on both dorsal and ventral side). On the contralateral ear, ethanol was applied as a negative control. Both ears were then immediately scanned with the Laser Doppler imager for a continuous 15-min period to capture changes in blood flow (Figure 1).
Mice were administered subcutaneously with vehicle or antagonist (Figure 1A). Ten minutes later mice were anesthetized and placed on a heating pad. Ten minutes after anesthesia induction, measurement of dermal blood-flow commenced. Either a single dose of antagonist as specified in the figures was used or a dose-ranging study was conducted. For the dose-ranging study, either hαCGRP8-37 or hαCGRP8-37 V8C-palmitate (V8C-palmitate) at a dose of 320, 960 or 3,200 nmol/kg was used. Doses were selected based on existing literature and our own pilot trials to characterize optimal (and maximal/minimal) effective dose within the bounds of solubility limits ([Saxen et al., 1994]; [Grant et al., 2002]; [Gohin et al., 2015]; [Aubdool et al., 2016]).
Mice were administered subcutaneously with vehicle or either hαCGRP8-37 (960 nmol/kg) or V8C-palmitate (960 nmol/kg) at 10, 20, 30 or 60 min prior to anesthesia and baseline read (Figure 1A). Ten minutes after anesthesia induction, measurement of dermal blood-flow began. To study the time of onset of antagonist activity, a shorter period between treatment administration and capsaicin challenge was utilized (T0) (Figure 1B). Here, mice were anesthetized and placed on the heating pad prior to peptide administration. Immediately after peptide administration, measurement of dermal blood-flow began.
For laser doppler imaging (LDI) scans, mean flux values of the whole scanned ear region for both ethanol (control) and capsaicin-treated ears at each time point (per minute) were analyzed using the MoorLDI Review 6.1 software. Mean flux values were normalized to the mean flux values averaged from the three continuous baseline scans and a time course is generated. Area under the curve (AUC) of the % flux mean after capsaicin application (t ≥ 0) was measured for each animal, grouped and compared between different ears or treatment arms. […] Time courses and time points were compared using repeated measures two-way ANOVA with Bonferonni’s multiple comparisons test.

Data set [2] has as its target T1, human CGRP receptor (CLR:RAMP1) (Homo sapiens, UniProt O60894+Q16602).
T1 construct: HA; myc; expressed in transfected cells; host or cells: Cos-7
Description: cAMP assay, antagonism of αCGRP at the human CGRP receptor in transfected Cos-7 cells. Type of data set: cell-based. As to conditions: for pA2, CGRPr: non-lipidated analogues, single antagonist concentration 30 nM, agonist αCGRP, mean ± SEM of three independent experiments, SEM; for fold less potent compared to αCGRP8-37 at the CGRP receptor: from pA2 values at 30 nM. Here is the method: (§2) Data were analyzed using GraphPad Prism versions 7–9 (GraphPad Software Inc., San Diego, CA, Unite States). Concentration-response cAMP data were fitted via non-linear regression using a four-parameter logistic equation. An extra sum-of-squares F-test was conducted to determine whether the Hill slope was equal to one. […] The maximal (Emax) and minimal (Emin) responses were not constrained between independent experiments to obtain the pEC50 value.
(§3) The Schild slope was also constrained to one.
On the technique in general: Cyclic AMP is a second messenger, typically raised through Gs and lowered through Gi signalling.

For data set [3], the target named is T2, human AMY1 receptor (CTR/RAMP1) (Homo sapiens, UniProt O60894+P30988).
T2 construct: HA; myc; expressed in transfected cells; host or cells: Cos-7
Briefly: cAMP assay, antagonism of αCGRP at the human AMY1 receptor in transfected Cos-7 cells. The class given is cell-based. To be noted: for pA2, AMY1r: non-lipidated analogues, single antagonist concentration 30 nM, agonist αCGRP, mean ± SEM of three independent experiments, SEM. Here is the method: as §2, §3

Data set [4] is described as follows: Solubility limit of the dosing solution. To be noted: dosing vehicle 0.9% saline with 0.1% BSA and 3.2% DMSO; limited the maximum dose to 320 nmol/kg (10 ml/kg). Type of data set: physicochemical. Here is the method:
as §1, with “Guided by earlier research ([Grant et al., 2002]), capsaicin (Sigma-Aldrich, St. Louis, MO, United States) dissolved in absolute ethanol was applied topically to the ear (60 μg/ear; 10 μl on both dorsal and ventral side). On the contralateral ear, ethanol was applied as a negative control. Both ears were then immediately scanned with the Laser Doppler imager for a continuous 15-min period to capture changes in blood flow (Figure 1).” left out

Ends that are not written are not given here. Peptide text beside a SMILES is read from it. * marks the point of attachment. Ethyl(2-palmitoyloxy) = CCCCCCCCCCCCCCCC(=O)OCC*

T1 sequence (Q16602 23-461): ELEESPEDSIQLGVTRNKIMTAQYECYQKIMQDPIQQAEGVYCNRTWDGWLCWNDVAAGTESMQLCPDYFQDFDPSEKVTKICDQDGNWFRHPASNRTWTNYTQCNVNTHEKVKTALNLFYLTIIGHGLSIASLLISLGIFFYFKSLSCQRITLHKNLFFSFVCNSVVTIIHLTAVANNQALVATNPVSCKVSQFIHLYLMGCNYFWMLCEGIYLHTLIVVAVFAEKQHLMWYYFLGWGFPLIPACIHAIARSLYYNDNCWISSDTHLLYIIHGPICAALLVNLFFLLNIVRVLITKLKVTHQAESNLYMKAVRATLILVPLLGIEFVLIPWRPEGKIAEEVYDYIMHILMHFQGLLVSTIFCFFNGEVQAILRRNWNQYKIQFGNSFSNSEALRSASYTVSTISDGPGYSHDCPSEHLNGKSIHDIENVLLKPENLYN
T1 sequence (O60894 27-148): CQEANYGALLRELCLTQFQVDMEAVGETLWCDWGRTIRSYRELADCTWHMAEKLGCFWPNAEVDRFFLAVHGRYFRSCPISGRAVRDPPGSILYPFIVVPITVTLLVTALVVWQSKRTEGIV
T2 sequence (P30988 25-474): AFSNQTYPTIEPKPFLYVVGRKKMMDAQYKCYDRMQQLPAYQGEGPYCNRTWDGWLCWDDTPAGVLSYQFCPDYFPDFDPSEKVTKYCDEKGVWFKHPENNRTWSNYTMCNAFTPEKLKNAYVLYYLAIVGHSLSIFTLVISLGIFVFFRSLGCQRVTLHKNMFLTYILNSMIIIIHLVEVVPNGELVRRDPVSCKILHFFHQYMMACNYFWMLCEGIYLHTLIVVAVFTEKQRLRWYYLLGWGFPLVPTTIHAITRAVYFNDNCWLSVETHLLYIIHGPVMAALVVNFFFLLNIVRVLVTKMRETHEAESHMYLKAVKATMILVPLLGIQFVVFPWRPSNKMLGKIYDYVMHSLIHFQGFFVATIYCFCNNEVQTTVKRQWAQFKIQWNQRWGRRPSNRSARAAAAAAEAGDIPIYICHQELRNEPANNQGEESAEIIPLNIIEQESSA
T2 sequence (O60894 27-148): as the sequence (O60894 27-148) above

For `CCCCCCCCCCCCCCCC(=O)OCCSC[C@H](N)C(=O)N[C@H](C(=O)N[C@@H](Cc1c[nH]cn1)C(=O)N[C@@H](CCCNC(=N)N)C(=O)N[C@@H](CC(C)C)C(=O)N[C@@H](C)C(=O)NCC(=O)N[C@@H](CC(C)C)C(=O)N[C@@H](CC(C)C)C(=O)N[C@@H](CO)C(=O)N[C@@H](CCCNC(=N)N)C(=O)N[C@@H](CO)C(=O)NCC(=O)NCC(=O)N[C@H](C(=O)N[C@H](C(=O)N[C@@H](CCCCN)C(=O)N[C@@H](CC(N)=O)C(=O)N[C@@H](CC(N)=O)C(=O)N[C@@H](Cc1ccccc1)C(=O)N[C@H](C(=O)N1CCC[C@H]1C(=O)N[C@H](C(=O)N[C@@H](CC(N)=O)C(=O)N[C@H](C(=O)NCC(=O)N[C@@H](CO)C(=O)N[C@@H](CCCCN)C(=O)N[C@@H](C)C(=O)N[C@@H](Cc1ccccc1)C(N)=O)C(C)C)[C@@H](C)O)C(C)C)C(C)C)C(C)C)[C@@H](C)O` [V8C-palmitate], the “effect on CIDV response (antagonist screening)” value (“effect … (antagonist screening)” below) in data set [1] is given as “attenuated the CIDV response”. The “effect on CIDV, dose ranging, 320 nmol/kg” value in data set [1] (male mice, 320 nmol/kg s.c. 10 min before anesthesia, six mice per group) is “did not have a significant antagonist effect”. The “effect on CIDV, dose ranging, 960 nmol/kg” value in data set [1] (male mice, 960 nmol/kg s.c. 10 min before anesthesia, six mice per group) is recorded as “significantly reduced CIDV”. Moreover, the “effect on CIDV, dose-duration study, T-10” value in data set [1] (male mice, 960 nmol/kg s.c. 10 min prior to anesthesia and capsaicin application, six mice per group) is listed as “attenuation evident only at T-10”. Further, in data set [1] (male mice, 960 nmol/kg s.c. 60 min prior to anesthesia and capsaicin application, six mice per group), the “effect on CIDV, dose-duration study, T-60” value is on record as “disappearing by the T-60 timepoint”. Moreover, in data set [1] (male mice, 3,200 nmol/kg s.c. 10 min before anesthesia, six mice per group), the “effect on CIDV, dose ranging, 3,200 nmol/kg” value was “significant antagonist effect”.
In the case of “K35C αCGRP8-37: cysteine-substituted αCGRP8-37 analogue at Lys-35”, the “pA2, CGRPr” value in data set [2] amounted to 8.85 ± 0.31. Further, the “pA2, AMY1r” value in data set [3] is reported as 7.04 ± 0.18.
Regarding `NCCCC[C@H](NC(=O)[C@@H](Cc1cc(Br)c(O)c(Br)c1)NC(=O)N1CCC(N2Cc3ccccc3NC2=O)CC1)C(=O)N1CCN(c2ccncc2)CC1` [olcegepant, reference compound], the “effect … (antagonist screening)” value in data set [1] was “attenuated the CIDV response”.
For `CCCCCCCCCCCCCCCC(=O)OCCSC[C@H](NC(=O)[C@H](CO)NC(=O)CNC(=O)[C@@H](NC(=O)[C@H](CC(N)=O)NC(=O)[C@@H](NC(=O)[C@@H]1CCCN1C(=O)[C@@H](NC(=O)[C@H](Cc1ccccc1)NC(=O)[C@H](CC(N)=O)NC(=O)[C@H](CC(N)=O)NC(=O)[C@H](CCCCN)NC(=O)[C@@H](NC(=O)[C@@H](NC(=O)CNC(=O)CNC(=O)[C@H](CO)NC(=O)[C@H](CCCNC(=N)N)NC(=O)[C@H](CO)NC(=O)[C@H](CC(C)C)NC(=O)[C@H](CC(C)C)NC(=O)CNC(=O)[C@H](C)NC(=O)[C@H](CC(C)C)NC(=O)[C@H](CCCNC(=N)N)NC(=O)[C@H](Cc1c[nH]cn1)NC(=O)[C@@H](NC(=O)[C@@H](N)C(C)C)[C@@H](C)O)C(C)C)C(C)C)C(C)C)[C@@H](C)O)C(C)C)C(=O)N[C@@H](C)C(=O)N[C@@H](Cc1ccccc1)C(N)=O` [K35C-palmitate], the “fold reduction of antagonist activity compared to hαCGRP8-37 at CGRP receptor” value in data set [2] (from pKB values) is reported as ~70 fold. Besides, the “fold reduction of antagonist activity compared to hαCGRP8-37 at AMY1 receptor” value in data set [3] (from pKB values) is listed as ~12 fold.
As for “K24C αCGRP8-37: cysteine-substituted αCGRP8-37 analogue at Lys-24 (VTHRLAGLLSRSGGVVCNNFVPTNVGSKAF-NH2; ends and bridges not checked; UniProt P06881 90-119, looked up, variant K24C)”, the “pA2, CGRPr” value in data set [2] is given as 8.25 ± 0.11. Further, the “pA2, AMY1r” value in data set [3] was 7.06 ± 0.15.
Turning to “βCGRP8-37: human βCGRP fragment 8-37, synthesized in house”, in data set [1] (male mice), the “effect on CIDV response at lower (mass-matched) dose” value is “weaker antagonist activities”.
For the compound `CCCCCCCCCCCCCCCC(=O)OCCSC[C@H](N)C(=O)N[C@H](C(=O)N[C@H](C(=O)N[C@@H](Cc1c[nH]cn1)C(=O)N[C@@H](CCCNC(=N)N)C(=O)N[C@@H](CC(C)C)C(=O)N[C@@H](C)C(=O)NCC(=O)N[C@@H](CC(C)C)C(=O)N[C@@H](CC(C)C)C(=O)N[C@@H](CO)C(=O)N[C@@H](CCCNC(=N)N)C(=O)N[C@@H](CO)C(=O)NCC(=O)NCC(=O)N[C@H](C(=O)N[C@H](C(=O)N[C@@H](CCCCN)C(=O)N[C@@H](CC(N)=O)C(=O)N[C@@H](CC(N)=O)C(=O)N[C@@H](Cc1ccccc1)C(=O)N[C@H](C(=O)N1CCC[C@H]1C(=O)N[C@H](C(=O)N[C@@H](CC(N)=O)C(=O)N[C@H](C(=O)NCC(=O)N[C@@H](CO)C(=O)N[C@@H](CCCCN)C(=O)N[C@@H](C)C(=O)N[C@@H](Cc1ccccc1)C(N)=O)C(C)C)[C@@H](C)O)C(C)C)C(C)C)C(C)C)[C@@H](C)O)C(C)C` [αCGRP7-37-palmitate], the “effect on CIDV response at lower (mass-matched) dose” value in data set [1] (male mice) is “weaker antagonist activities”.
“V8C αCGRP8-37: cysteine-substituted αCGRP8-37 analogue at Val-8 (CTHRLAGLLSRSGGVVKNNFVPTNVGSKAF-NH2; ends and bridges not checked; UniProt P06881 90-119, looked up, variant V8C)”: in data set [2], the “fold less potent compared to αCGRP8-37 at the CGRP receptor” value came out at 25 fold and the “pA2, CGRPr” value was 7.23 ± 0.07. In addition, in data set [3], the “pA2, AMY1r” value turned out to be 6.41 ± 0.15.
For `CCCCCCCCCCCCCCCC(=O)OCCSC[C@H](NC(=O)[C@@H](NC(=O)[C@@H](NC(=O)CNC(=O)CNC(=O)[C@H](CO)NC(=O)[C@H](CCCNC(=N)N)NC(=O)[C@H](CO)NC(=O)[C@H](CC(C)C)NC(=O)[C@H](CC(C)C)NC(=O)CNC(=O)[C@H](C)NC(=O)[C@H](CC(C)C)NC(=O)[C@H](CCCNC(=N)N)NC(=O)[C@H](Cc1c[nH]cn1)NC(=O)[C@@H](NC(=O)[C@@H](N)C(C)C)[C@@H](C)O)C(C)C)C(C)C)C(=O)N[C@@H](CC(N)=O)C(=O)N[C@@H](CC(N)=O)C(=O)N[C@@H](Cc1ccccc1)C(=O)N[C@H](C(=O)N1CCC[C@H]1C(=O)N[C@H](C(=O)N[C@@H](CC(N)=O)C(=O)N[C@H](C(=O)NCC(=O)N[C@@H](CO)C(=O)N[C@@H](CCCCN)C(=O)N[C@@H](C)C(=O)N[C@@H](Cc1ccccc1)C(N)=O)C(C)C)[C@@H](C)O)C(C)C` [K24C-palmitate] (H-VTHRLAGLLSRSGGVVC(Ethyl(2-palmitoyloxy))NNFVPTNVGSKAF-NH2; N-terminus assumed), the “effect … (antagonist screening)” value in data set [1] is “attenuated the CIDV response”. Besides, the solubility result in data set [4] is given as “limited solubility at high concentrations”.
With “αCGRP7-37: truncated peptide antagonist which retains the native Cys-7 residue (CVTHRLAGLLSRSGGVVKNNFVPTNVGSKAF; ends and bridges not checked; UniProt P06881 89-119, looked up, fragment)”, in data set [2], the “fold less potent compared to αCGRP8-37 at the CGRP receptor” value is recorded as 4.5 fold and the “pA2, CGRPr” value amounted to 7.98 ± 0.09. Further, the “pA2, AMY1r” value in data set [3] came out at 7.10 ± 0.17.

(Values after publication PMC8942775, “Lipidated Calcitonin Gene-Related Peptide (CGRP) Peptide Antagonists Retain CGRP Receptor Activity and Attenuate CGRP Action In Vivo” (Frontiers in Pharmacology, 2022).)
